The subject of data set [1] is ATR-CHK1 pathway. The experiment in a line: Western blot of pCHK1, pRPA32 and p21 after ZNF827 knockdown, topotecan and/or ATR inhibitor. It counts as cell-based. On the procedure: Protein was extracted from 10^6 cells per sample by vigorous pipetting and incubation at room temperature for 30 minutes in 100 μL of EDTA-free 4× LDS buffer (106 mM Tris-Cl, 141 mM Tris-Base, 40% Glycerol, 2% LDS, 0.075% SERVA Blue G50) supplemented with 2.5% Benzonase® nuclease 25 U/μL (Novagen, Merck Millipore) and 2% beta-mercaptoethanol (Sigma). Following protein extraction, all samples were denatured at 90° C. for 15 minutes before resolving on NuPAGE® Novex® 4-12% Bis-Tris Mini Gels (Invitrogen) with 1×10^5 cells (10 μL) loaded per lane in NuPAGE® MES SDS running buffer (Invitrogen) at 200 V for 50 minutes. Gels were transferred onto a PVDF membrane (Immobilon-P, Millipore) in transfer buffer (190 mM glycine, 25 mM Tris and 10% methanol) at 100 V for 60 minutes. Membranes were stained with Ponceau-S for 30 minutes, de-stained then blocked for 1 hour at room temperature in 5% skim milk dissolved in PBS with 0.1% Tween-20 (PBST) or TBS with 0.1% Tween-20 (TBST) for phosphorylated proteins. Membranes were cut into appropriate segments based on the size markers, with each segment incubated with antibodies for proteins of interest diluted in 0.5% skim milk in PBST/TBST or 5% BSA overnight at 4° C. (Refer to Table 4 for the list of antibodies). Blots were then washed for 3×5 minutes in PBST/TBST followed by incubation for 1 hour at room temperature with appropriate secondary antibodies (See Table 5) diluted 1:5000 in 0.5% skim milk or 5% BSA in PBST/TBST. Blots were washed for 3×5 minutes in PBST/TBST before incubation with SuperSignal West Pico Chemiluminescent Substrate (ThermoFisher Scientific) for 5 minutes at room temperature. Blots were then exposed to a Luminescent Image Analyser (LAS-4000, Fujifilm).
Background: A western blot detects proteins with antibodies after separation by electrophoresis.

For data set [2], the target named is T1, ZNF827 SUMOylation mutant (Homo sapiens, UniProt Q17R98 SEQ:4-1079).
T1 chain: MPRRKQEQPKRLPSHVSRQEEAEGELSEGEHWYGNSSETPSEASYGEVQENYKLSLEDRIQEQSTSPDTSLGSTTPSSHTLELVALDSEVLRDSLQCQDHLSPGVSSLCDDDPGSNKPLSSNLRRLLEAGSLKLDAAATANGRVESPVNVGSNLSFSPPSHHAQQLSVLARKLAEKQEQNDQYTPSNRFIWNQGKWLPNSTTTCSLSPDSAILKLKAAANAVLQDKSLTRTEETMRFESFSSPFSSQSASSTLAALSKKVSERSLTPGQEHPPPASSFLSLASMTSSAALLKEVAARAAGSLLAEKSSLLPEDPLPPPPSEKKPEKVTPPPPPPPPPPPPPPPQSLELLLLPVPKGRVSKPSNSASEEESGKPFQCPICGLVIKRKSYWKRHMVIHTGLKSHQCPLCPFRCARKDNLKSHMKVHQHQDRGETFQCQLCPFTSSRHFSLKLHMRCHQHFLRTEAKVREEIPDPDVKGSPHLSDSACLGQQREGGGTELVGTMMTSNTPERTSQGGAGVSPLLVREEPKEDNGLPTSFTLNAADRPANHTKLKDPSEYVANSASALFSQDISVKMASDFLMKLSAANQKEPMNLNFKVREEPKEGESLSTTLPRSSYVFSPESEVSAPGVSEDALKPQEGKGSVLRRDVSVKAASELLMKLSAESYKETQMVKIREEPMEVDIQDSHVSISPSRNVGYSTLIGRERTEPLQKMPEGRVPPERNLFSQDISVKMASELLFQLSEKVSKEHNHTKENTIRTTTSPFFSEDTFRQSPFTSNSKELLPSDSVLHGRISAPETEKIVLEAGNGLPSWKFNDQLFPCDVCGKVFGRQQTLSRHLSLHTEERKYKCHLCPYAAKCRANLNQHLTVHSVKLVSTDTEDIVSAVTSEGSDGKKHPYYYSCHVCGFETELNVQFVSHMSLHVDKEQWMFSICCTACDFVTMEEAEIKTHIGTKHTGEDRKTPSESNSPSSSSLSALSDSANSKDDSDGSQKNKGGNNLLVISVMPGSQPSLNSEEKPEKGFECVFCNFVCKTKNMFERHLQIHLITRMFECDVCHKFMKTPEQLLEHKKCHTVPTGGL
The experiment in a line: EMSA; positive control; 0.8 mM ZnCl2, 100 mM KCl, poly(dI:dC), on ice. The settings on record: tags: HaloTag (pHTN), expressed in HEK 293T, tag removed by HaloTEV cleavage; label: 32P (gamma). On the procedure:
Purified proteins were quantified using a BCA assay using the Pierce™ BCA Protein Assay Kit according to the manufacturer's instructions. Equal amounts of purified proteins were incubated in binding buffer (20 mM HEPES-KOH, pH7.9, 100 mM KCl, 0.8 mM ZnCl₂, 0.2 mM EDTA, 5% glycerol, 0.5 mM DTT and 0.5 mM PMSF) with 6.25 μg/mL poly (dI:dC) and 50 ng/μL BSA on ice for 20 minutes. ˜0.12 nM (˜2.5 fmol) γ-³²P labelled DNA oligonucleotide (see Table 3) probes were added to samples and incubated on ice for another 30 minutes. Binding reactions were loaded onto an 8% native acrylamide/bisacrylamide (19:1, Biorad) gel pre-run at 100V in 0.5× TB buffer (89 mM Tris, 89 mM boric acid) for 20 minutes. Gels were electrophoresed at 150 V for 150 minutes at 4° C., dried at 65° C. for 45 minutes, and then exposed to a Phosphor screen overnight. Gel images were obtained by scanning the screens with a Typhoon FLA9500 Imager (GE Life Sciences).
To identify which zinc fingers are required for DNA binding activity, zinc finger mutants with either one or both zinc finger clusters deleted were also generated and purified (FIG. 1). Purified proteins were validated by HaloTag® TMR ligand detection and western blot analysis. Mass spectrometry (MS) analysis also confirmed the specificity of the HaloTag protein purification method. […]

“siZNF827: Stealth RNAi siRNA ZNF827HSS135819 duplex oligoribonucleotides (Invitrogen), SEQ ID NO: 12 and 13 (chain 1 GGGCAGUCUUCUGGCUGAGAAAUCA; chain 2 UGAUUUCUCAGCCAGAAGACUGCCC; listed as RNA, further chemistry not given here)”: the “phosphorylation of CHK1 S345 and RPA32 S33 compared with ATR inhibitors” value in data set [1] (ZNF827 knockdown versus ATR inhibitors VE-821 and AZ20) was “greater reduction in phosphorylation of CHK1 S345 and RPA32 S33 than ATR inhibitors”. Moreover, the “phosphorylation of CHK1 S345 and RPA S33” value in data set [1] (ZNF827 knockdown, topotecan treatment) was “substantially suppressed”. Also, in data set [1] (unchallenged ZNF827-depleted cells, compared with topotecan-treated cells), the p21 level result is reported as “upregulated”.

B1: ss telomeric G rich oligo (ssDNA)
DNA: TTAGGGTTAGGGTTAGGG
B1: the binding result in data set [2] is reported as “binds”.

(Values after US20220305003A1, “METHODS OF TREATING CANCER WITH AN INHIBITOR OF ZNF827” (CHILDREN'S MEDICAL RESEARCH INSTITUTE, priority 2019, published 2022).)
